In PMC3766633 (Biomaterials, 2013):
“Also recorded” adds a separate entry of the source.

What was measured:
male Wistar rats [1] = assay: Subcutaneous injection, hypoglycemic effect; type: in vivo, rat; settings: 1 IU/kg
male Wistar rats [2] = assay: In situ ileal loop absorption experiment, hypoglycemic effect; settings: 50 IU/kg
[3] = Precipitation / aggregation on mixing with LMWP during coupling; type: physicochemical; settings: mixing with LMWP or LMWP-SH during the coupling process, observation
dogs = settings: dog, in vivo; cited from earlier work
[4] = cell culture and animal studies; cited from earlier work

In the case of “Insulin-Polyethylene Glycol-Low Molecular Weight Protamine Conjugate [Insulin-PEG-LMWP]”, the “transporting efficiency, times higher than that of native insulin, basolateral-to-apical flux” value (Caco-2 cell monolayer; Caco-2) is reported as 4.09 times, the “Peff (permeability coefficient), apical-to-basolateral” value (Caco-2 cell monolayer; Caco-2, pH 7.4) is reported as 5.33±0.03 ×10^-6 cm/s and the “Peff (permeability coefficient), basolateral-to-apical” value (Caco-2 cell monolayer; Caco-2, pH 7.4) is reported as 4.95±0.15 ×10^-6 cm/s. The “BGL level maintained till the end of the study (10 h)” value (male Wistar rats [1]; s.c.) was “around 70%”, the “reduction of BGL two hours following subcutaneous injection” value (male Wistar rats [1]; s.c., 2 h) was “about 30%” and the “bioactivity of insulin after conjugation with LMWP” value (male Wistar rats [1]; s.c., compared with s.c. insulin) was “not to be impaired”. The “drop of BGL soon after administration” value (male Wistar rats [2]) was 70%, the “Tmin (time to reach BGLmin)” value (male Wistar rats [2]; male Wistar rats, N=6) was 6 h and the “BGL level remaining after the minimum” value (male Wistar rats [2]; over a period of 10 hours, % of initial value) was 30–45%.

With “Insulin-Polyethylene Glycol-Maleimide [Insulin-PEG-MAL]” the “appearance on mixing / reaction with LMWP (precipitation of insoluble complexes)” value [3] was “transparent reaction mixture”.

For “VSRRRRRRGGRRRR [LMWP, Low Molecular Weight Protamine]”, the complement activation (dogs) is listed as “only minor”, the hypotensive responses (dogs) is listed as “non-detectable” and the “cell internalization potency relative to TAT” value [4] is listed as “equivalent”.

With insulin the “appearance on mixing / reaction with LMWP (precipitation of insoluble complexes)” value [3] was “significant precipitation”, the “time of return of BGL to the basal level (~100%)” value (male Wistar rats [1]; s.c.) was 6 h and the “BGLmin (minimum blood glucose level)” value (male Wistar rats [1]; sc., male Wistar rats, % of initial value, N=6) was 65.75%. For the same substance, the “Tmin (time to reach BGLmin)” value (male Wistar rats [1]; sc., male Wistar rats, N=6) was 1 h, the “AAC0→10h (area above the curve)” value (male Wistar rats [1]; sc., male Wistar rats, trapezoidal method, N=6) was 10547 %min and the “PA0→10h (relative pharmacological availability)” value (male Wistar rats [1]; sc., reference route, N=6) was 100.00%. For the same substance, the “hypoglycemic effect (decrease in BGL compared with PBS negative control)” value (male Wistar rats [2]; male Wistar rats) was “no statistically significant decrease; also recorded: virtually no hypoglycemic effects”, the “AAC0→10h (area above the curve)” value (male Wistar rats [2]; male Wistar rats, trapezoidal method, N=6) was 2751 %min and the “PA0→10h (relative pharmacological availability)” value (male Wistar rats [2]; relative to s.c. insulin 1 IU/kg, male Wistar rats, N=6) was 0.52%.
